In patent US8492371B2, “Compounds as cannabinoid receptor ligands” (priority 2009, dated 2013):
Like-named read-outs stand apart in the source and are kept apart here.

Assays:
rat CB2 receptors = biological target: T1, rat CB2 receptors (Rattus norvegicus, UniProt Q9QZN9); test: Rat CB2 radioligand binding assay ([3H]CP-55,940 competition)
T1 construct: expressed in transfected cells; host or cells: HEK293
T1 sequence (Q9QZN9 1-360): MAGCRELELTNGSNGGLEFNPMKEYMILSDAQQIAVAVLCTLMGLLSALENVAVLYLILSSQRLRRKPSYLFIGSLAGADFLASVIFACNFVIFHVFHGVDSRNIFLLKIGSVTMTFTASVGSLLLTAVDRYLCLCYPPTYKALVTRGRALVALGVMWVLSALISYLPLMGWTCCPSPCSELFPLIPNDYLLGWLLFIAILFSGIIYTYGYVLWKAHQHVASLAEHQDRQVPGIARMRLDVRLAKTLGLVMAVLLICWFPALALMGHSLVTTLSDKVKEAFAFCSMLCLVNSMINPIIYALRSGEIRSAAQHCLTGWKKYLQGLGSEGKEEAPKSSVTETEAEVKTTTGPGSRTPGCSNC
Procedure, shortened: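 Membranes from HEK293 cells stably expressing rat CB2 (20 μg/well) incubated 45 min at 30 °C with 0.5 nM [3H]CP-55,940 and five competitor concentrations in Tris/EDTA/MgCl2 buffer with 0.5 mg/mL BSA, pH 7.4. Filtration and scintillation counting; nonspecific binding with 10 μM unlabeled CP-55,940.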

human CB2 receptors = biological target: T2, human CB2 receptors (Homo sapiens, UniProt P34972); test: Human CB2 radioligand binding assay ([3H]CP-55,940 competition)
T2 construct: expressed in transfected cells; host or cells: HEK293
Procedure, shortened: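 Membranes from HEK293 cells stably expressing human CB2 (5 μg/well) incubated 90 min at 30 °C with 0.5 nM [3H]CP-55,940 and five concentrations of displacer (0.01 nM–10 μM) in pH 7.4 Tris/EDTA/MgCl2 buffer with fatty acid free BSA. Bound radioactivity counted after filtration; nonspecific binding defined with 10 μM unlabeled CP-55,940.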

[1] = HEK293 membranes, 0.5 nM [3H]CP-55,940, read-out: human CB2 Ki

T2 sequence (P34972 whole entry): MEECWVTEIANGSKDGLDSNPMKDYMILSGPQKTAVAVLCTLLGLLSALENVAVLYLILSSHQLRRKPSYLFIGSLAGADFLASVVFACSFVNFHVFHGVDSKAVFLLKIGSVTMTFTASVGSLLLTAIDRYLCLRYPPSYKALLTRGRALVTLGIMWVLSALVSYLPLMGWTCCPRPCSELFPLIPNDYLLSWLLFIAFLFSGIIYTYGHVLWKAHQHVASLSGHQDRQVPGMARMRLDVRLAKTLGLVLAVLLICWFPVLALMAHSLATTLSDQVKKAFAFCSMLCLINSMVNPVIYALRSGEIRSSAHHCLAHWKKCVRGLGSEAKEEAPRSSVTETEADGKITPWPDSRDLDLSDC

Row | SMILES | Ki (rat CB2 receptors) [nM] | Ki (human CB2 receptors) [nM] | Ki (human CB2 receptors; [1]) [nM]
1 | Cn1c(C(C)(C)C)c/c(=N\C(=O)c2cc(C(F)(F)F)ccc2Cl)n1C[C@H]1CCCO1 [Example 54, N-{(3E)-5-tert-butyl-1-methyl-2-[(2R)-tetrahydrofuran-2-ylmethyl]-1,2-dihydro-3H-pyrazol-3-ylidene}-2-chloro-5-(trifluoromethyl)benzamide] | 9.5 | 17 | –
2 | CN1CC[C@H](Oc2ccc(C(F)(F)F)cc2C(=O)/N=c2\oc(C(C)(C)C)cn2C[C@H]2CCCO2)C1 [Example 98, N-[(2Z)-5-tert-butyl-3-[(2R)-tetrahydrofuran-2-ylmethyl]-1,3-oxazol-2(3 H)-ylidene]-2-{[(3S)-1-methylpyrrolidin-3-yl]oxy}-5-(trifluoromethyl)benzamide] | 88 | – | 261
3 | Cn1c(C(C)(C)C)c/c(=N\C(=O)c2cc(C(F)(F)F)ccc2CC(=O)OC(C)(C)C)n1C[C@H]1CCCO1 [Example 111, tert-butyl [2-[({(3E)-5-tert-butyl-1-methyl-2-[(2R)-tetrahydrofuran-2-ylmethyl]-1,2-dihydro-3H-pyrazol-3-ylidene}amino)carbonyl]-4-(trifluoromethyl)phenyl]acetate] | 12 | 14 | –
4 | Cn1c(C(C)(C)C)c/c(=N\C(=O)c2cc(C(F)(F)F)ccc2/C=C/C(C)(C)O)n1C[C@H]1CCCO1 [Example 100, N-{(3E)-5-tert-butyl-1-methyl-2-[(2R)-tetrahydrofuran-2-ylmethyl]-1,2-dihydro-3H-pyrazol-3-ylidene}-2-[(1E)-3-hydroxy-3-methylbut-1-enyl]-5-(trifluoromethyl)benzamide] | 1.1 | 3.2 | –
5 | Cn1c(C(C)(C)C)c/c(=N\C(=O)c2cc(OCCF)cc(C(F)(F)F)c2)n1C[C@H]1CCCO1 [Example 105, N-{(3E)-5-tert-butyl-1-methyl-2-[(2R)-tetrahydrofuran-2-ylmethyl]-1,2-dihydro-3H-pyrazol-3-ylidene}-3-(2-fluoroethoxy)-5-(trifluoromethyl)benazmide] | 10 | 69 | –
6 | CN(C)S(=O)(=O)Nc1ccc(C(F)(F)F)cc1C(=O)/N=c1\cc(C(C)(C)C)n(C)n1C[C@H]1CCCO1 [Example 121, N-{(3E)-5-tert-butyl-1-methyl-2-[(2R)-tetrahydrofuran-2-ylmethyl]-1,2-dihydro-3H-pyrazol-3-ylidene}-2-{[(dimethylamino)sulfonyl]amino}-5-(trifluoromethyl)benzamide] | 15 | 53 | –
7 | CC(C)(C)c1nn(C[C@H]2CCCO2)/c(=N/C(=O)NC2CCCc3ccccc32)s1 (stereo partly drawn) [Example 73, N-[(2Z)-5-tert-butyl-3-[(2R)-tetrahydrofuran-2-ylmethyl]-1,3,4-thiadiazol-2(3 H)-ylidene]-N′-1,2,3,4-tetrahydronaphthalen-1-ylurea] | 8.2 | 45 | –
8 | COC(=O)Cc1ccc(C(F)(F)F)cc1C(=O)/N=c1\cc(C(C)(C)C)n(C)n1C[C@H]1CCCO1 [Example 128, methyl [2-[({(3E)-5-tert-butyl-1-methyl-2-[(2R)-tetrahydrofuran-2-ylmethyl]-1,2-dihydro-3H-pyrazol-3-ylidene}amino)carbonyl]-4-(trifluoromethyl)phenyl]acetate] | 107 | 243 | –
9 | Cn1c(C(C)(C)C)c/c(=N\C(=O)c2cc(C(F)(F)F)cc(Cl)c2F)n1C[C@H]1CCCO1 [Example 52, N-{(3E)-5-tert-butyl-1-methyl-2-[(2R)-tetrahydrofuran-2-ylmethyl]-1,2-dihydro-3H-pyrazol-3-ylidene}-3-chloro-2-fluoro-5-(trifluoromethyl)benzamide] | 1.3 | 6.6 | –
10 | Cn1c(C(C)(C)C)c/c(=N\C(=O)c2cc(C(F)(F)F)ccc2OCC(F)(F)F)n1C[C@H]1CCCO1 [Example 21, N-{(3E)-5-tert-butyl-1-methyl-2-[(2R)-tetrahydrofuran-2-ylmethyl]-1,2-dihydro-3H-pyrazol-3-ylidene}-2-(2,2,2-trifluoroethoxy)-5-(trifluoromethyl)benzamide] | 22 | 63 | –
11 | COc1ccc(Cl)cc1C(=O)/N=c1\sc(C2(C)CC2)nn1C[C@H]1CCCO1 [Example 5, 5-chloro-2-methoxy-N-[(2Z)-5-(1-methylcyclopropyl)-3-[(2R)-tetrahydrofuran-2-ylmethyl]-1,3,4-thiadiazol-2(3H)-ylidene]benzamide] | 0.9 | 9.1 | –
12 | CCOCCOc1ccc(C(F)(F)F)cc1C(=O)/N=c1\cc(C(C)(C)C)n(C)n1C[C@H]1CCCO1 [Example 31, N-{(3E)-5-tert-butyl-1-methyl-2-[(2R)-tetrahydrofuran-2-ylmethyl]-1,2-dihydro-3H-pyrazol-3-ylidene}-2-(2-ethoxyethoxy)-5-(trifluoromethyl)benzamide] | 6.2 | 11 | –
13 | COc1ccc(C(F)(F)F)cc1C(=O)/N=c1\cc(C(C)(C)C)n(C)n1CC1CCCCO1 (stereo not drawn) [Example 63, N-[(3E)-5-tert-butyl-1-methyl-2-(tetrahydro-2H-pyran-2-ylmethyl)-1,2-dihydro-3H-pyrazol-3-ylidene]-2-methoxy-5-(trifluoromethyl)benzamide] | 20 | 36 | –
14 | COc1ccc(C(F)(F)F)cc1C(=O)/N=c1\cc(C(C)(C)C)n(C)n1C[C@H]1CCCO1 [Example 47, N-{(3E)-5-tert-butyl-1-methyl-2-[(2R)-tetrahydrofuran-2-ylmethyl]-1,2-dihydro-3H-pyrazol-3-ylidene}-2-methoxy-5-(trifluoromethyl)benzamide] | 3.7 | 17 | –
15 | COC(=O)C12CC3CC(CC(C(=O)/N=c4\cc(C(C)(C)C)n(C)n4C[C@H]4CCCO4)(C3)C1)C2 [Example 118] | 14 | 42 | –
16 | COc1ccc(Cl)cc1C(=O)/N=c1\sc(C(C)(C)C)nn1C[C@H]1COC(=O)N1 [Example 91, N-[(2Z)-5-tert-butyl-3-{[(4S)-2-oxo-1,3-oxazolidin-4-yl]methyl}-1,3,4-thiadiazol-2(3H)-ylidene]-5-chloro-2-methoxybenzamide] | 30 | – | 203
17 | COc1ccc(Br)cc1C(=O)/N=c1\cc(C(C)(C)C)n(C)n1C[C@H]1CCCO1 [Example 49, 5-bromo-N-{(3E)-5-tert-butyl-1-methyl-2-[(2R)-tetrahydrofuran-2-ylmethyl]-1,2-dihydro-3H-pyrazol-3-ylidene}-2-methoxybenzamide] | 20 | 56 | –
18 | CC(CCc1ccccc1)NC(=O)/N=c1\sc(C(C)(C)C)nn1C[C@H]1CCCO1 (stereo partly drawn) [Example 79, N-[(2Z)-5-tert-butyl-3-[(2R)-tetrahydrofuran-2-ylmethyl]-1,3,4-thiadiazol-2(3 H)-ylidene]-N′-(1-methyl-3-phenylpropyl)urea] | 11 | 32 | –
19 | Cn1c(C(C)(C)C)c/c(=N\C(=O)c2cc(C(F)(F)F)ccc2NS(C)(=O)=O)n1C[C@H]1CCCO1 [Example 113, N-{(3E)-5-tert-butyl-1-methyl-2-[(2R)-tetrahydrofuran-2-ylmethyl]-1,2-dihydro-3H-pyrazol-3-ylidene}-2-[(methylsulfonyl)amino]-5-(trifluoromethyl)benzamide] | 40 | 110 | –
20 | COc1ccc(C#N)cc1C(=O)/N=c1\cc(C(C)(C)C)n(C)n1C[C@H]1CCCO1 [Example 48] | 29 | – | 143
21 | Cn1c(C(C)(C)C)c/c(=N\C(=O)c2cc(C(F)(F)F)ccc2OCC2(O)CCC2)n1C[C@H]1CCCO1 [Example 44, N-{(3E)-5-tert-butyl-1-methyl-2-[(2R)-tetrahydrofuran-2-ylmethyl]-1,2-dihydro-3H-pyrazol-3-ylidene}-2-[(1-hydroxycyclobutyl)methoxy]-5-(trifluoromethyl)benzamide] | 18 | 17 | –
22 | Cn1c(C(C)(C)C)c/c(=N\C(=O)c2cc(F)cc(F)c2F)n1C[C@H]1CCCO1 [Example 51, N-{(3E)-5-tert-butyl-1-methyl-2-[(2R)-tetrahydrofuran-2-ylmethyl]-1,2-dihydro-3H-pyrazol-3-ylidene}-2,3,5-trifluorobenzamide] | 67 | 68 | –
23 | Cn1c(C(C)(C)C)c/c(=N\C(=O)c2cc(C(F)(F)F)ccc2OCC2CC(F)(F)C2)n1C[C@H]1CCCO1 [Example 19, N-{(3E)-5-tert-butyl-1-methyl-2-[(2R)-tetrahydrofuran-2-ylmethyl]-1,2-dihydro-3H-pyrazol-3-ylidene}-2-[(3,3-difluorocyclobutyl)methoxy]-5-(trifluoromethyl)benzamide] | 11 | 22 | –
24 | COC(C)(C)CCOc1ccc(C(F)(F)F)cc1C(=O)/N=c1\cc(C(C)(C)C)n(C)n1C[C@H]1CCCO1 [Example 20, N-{(3E)-5-tert-butyl-1-methyl-2-[(2R)-tetrahydrofuran-2-ylmethyl]-1,2-dihydro-3H-pyrazol-3-ylidene}-2-(3-methoxy-3-methylbutoxy)-5-(trifluoromethyl)benzamide] | 23 | 25 | –
